# Assays:
# Assay type in all cases: in vivo
# [1] = test system: Winter Wheat variety 'Hereward'; assay: Crop damage to winter wheat, post-emergence spray; settings: 250 g/ha, no safener, evaluated after 13 days, 100=total damage to plant, 0=no damage
# Experimental: Seeds of the Winter Wheat variety ‘Hereward’ were sown in standard soil in pots. After 8 days cultivation under controlled conditions in a glasshouse (at 24/16° C., day/night; 14 hours light; 65% humidity), the plants were sprayed post-emergence with an aqueous spray solution derived from the formulation of the technical active ingredient in acetone/water (50:50) solution containing 0.5% Tween 20 (polyoxyethylene sorbitan monolaurate, CAS RN 9005-64-5). The test plants were then grown in a glasshouse under controlled conditions in a glasshouse (at 24/16° C., day/night; 14 hours light; 65% humidity) and watered twice daily. After 13 days for pre and post-emergence, the test was evaluated (100=total damage to plant; 0=no damage to plant).
# [2] = test system: Winter Wheat variety 'Hereward'; assay: Crop damage to winter wheat seed treated with safener cloquintocet mexyl, post-emergence spray; settings: 250 g/ha, seed treated with cloquintocet mexyl 0.5 g/kg seed, evaluated after 13 days, 100=total damage, 0=no damage
# Experimental: Seeds of the Winter Wheat variety ‘Hereward’ were seed treated with a wettable powder formulation of the cereal herbicide safener, cloquintocet mexyl, at a rate of 0.5 grams per kilogram of dry seed prior to the initiation of glasshouse testing. One seed was sown per 1.5 inch plastic pot into a sandy loam soil at a depth of 1 cm, 8 days prior to application of the test compounds and was watered and grown under controlled conditions in a glasshouse (at 24/16° C., day/night; 14 hours light; 65% humidity). The plants were sprayed post-emergence with an aqueous spray solution derived from the formulation of the technical active ingredient in acetone/water (50:50) solution containing 0.5% Tween 20 (polyoxyethylene sorbitan monolaurate, CAS RN 9005-64-5). The test plants were then grown in a glasshouse under controlled conditions in a glasshouse (at 24/16° C., day/night; 14 hours light; 65% humidity) and watered twice daily. After 13 days for pre and post-emergence, the test was evaluated (100=total damage to plant; 0=no damage to plant).
# [3] = test system: Echinochloa crus-galli (ECHCG); assay: Pre-emergence herbicidal activity, glasshouse pot test; settings: rate not printed (columns shifted), evaluated after 13 days, 100=total damage to plant, 0=no damage
# Experimental: (§1) Seeds of a variety of test species are sown in standard soil in pots. After cultivation for one day (pre-emergence) or after 8 days cultivation (post-emergence) under controlled conditions in a glasshouse (at 24/16° C., day/night; 14 hours light; 65% humidity), the plants are sprayed with an aqueous spray solution derived from the formulation of the technical active ingredient in acetone/water (50:50) solution containing 0.5% Tween 20 (polyoxyethylene sorbitan monolaurate, CAS RN 9005-64-5). The test plants are then grown in a glasshouse under controlled conditions in a glasshouse (at 24/16° C., day/night; 14 hours light; 65% humidity) and watered twice daily. After 13 days for pre and post-emergence, the test is evaluated (100=total damage to plant; 0=no damage to plant). Lolium perenne (LOLPE), Alopecurus myosuroides (ALOMY), Echinochloa crus-galli (ECHCG), Avena fatua (AVEFA) Pre-Emergence Activity
# Lolium perenne (LOLPE) [4] = assay: as above; settings: rate not printed (columns shifted), evaluated after 13 days, 100=total damage to plant, 0=no damage
# Experimental: as §1
# [5] = test system: Alopecurus myosuroides (ALOMY); assay: as above; settings: rate not printed (columns shifted), evaluated after 13 days, 100=total damage to plant, 0=no damage
# Experimental: as §1
# Avena fatua (AVEFA) [6] = assay: as above; settings: rate not printed (columns shifted), evaluated after 13 days, 100=total damage to plant, 0=no damage
# Experimental: as §1
# [7] = test system: Echinochloa crus-galli (ECHCG); assay: Post-emergence herbicidal activity, glasshouse pot test; settings: 312 h, evaluated after 13 days, 100=total damage to plant, 0=no damage
# Experimental: as §1, with “Post-Emergence” for “Pre-Emergence”
# Lolium perenne (LOLPE) [8] = assay: as above; settings: 312 h, evaluated after 13 days, 100=total damage to plant, 0=no damage
# Experimental: as §1, with “Post-Emergence” for “Pre-Emergence”
# [9] = test system: Alopecurus myosuroides (ALOMY); assay: as above; settings: 312 h, evaluated after 13 days, 100=total damage to plant, 0=no damage
# Experimental: as §1, with “Post-Emergence” for “Pre-Emergence”
# Avena fatua (AVEFA) [10] = assay: as above; settings: 312 h, evaluated after 13 days, 100=total damage to plant, 0=no damage
# Experimental: as §1, with “Post-Emergence” for “Pre-Emergence”
Compound,Winter Wheat (Hereward) (damage to plant) [1],Winter Wheat (Hereward) + cloquintocet mexyl (damage to plant) [2],Pre-Emergence Activity ECHCG (damage to plant) [3],Pre-Emergence Activity LOLPE (damage to plant) (Lolium perenne (LOLPE) [4]),Pre-Emergence Activity ALOMY (damage to plant) [5],Pre-Emergence Activity AVEFA (damage to plant) (Avena fatua (AVEFA) [6]),pest or weed control at 250 g/ha [7],pest or weed control at 250 g/ha (Lolium perenne (LOLPE) [8]),pest or weed control at 250 g/ha [9],pest or weed control at 250 g/ha (Avena fatua (AVEFA) [10])
Cc1sc(-c2ccc(C(C)C)cc2)nc1C1C(=O)C/C(=C\C2CCOCC2)C1=O (stereo not shown) [Compound A1],20,0,50,10,10,0,10%,0%,10%,0%
Cc1sc(COc2ccc(Cl)cc2)nc1C1C(=O)CC(CC2CCOCC2)C1=O (stereo not shown) [Compound A2],,,,,,,20%,10%,10%,0%
Cc1sc(COc2ccc(Cl)cc2)nc1C1C(=O)C/C(=C\C2CCOCC2)C1=O (stereo not shown) [Compound A3],,,,,,,20%,0%,10%,0%
Cc1sc(-c2ccc(Br)cn2)nc1C1C(=O)C/C(=C\C2CCOCC2)C1=O (stereo not shown) [Compound A4],,,,,,,70%,0%,20%,0%
Cc1sc(-c2ccc(Cl)cc2)cc1C1C(=O)CC(CC2CCOC2)C1=O (stereo not shown) [Compound A5],,,,,,,80%,30%,50%,50%
Cc1sc(-c2ccc(Cl)cc2)cc1C1C(=O)CC(CC2CCOCC2)C1=O (stereo not shown) [Compound A6],10,0,,,,,60%,0%,50%,0%
CCc1sc(-c2ccc(Cl)cc2)nc1C1C(=O)C/C(=C\C2CCOCC2)C1=O (stereo not shown) [Compound A7],90,40,100,80,70,70,100%,60%,90%,100%
Cc1cnc(-c2ccc(Cl)cc2)nc1C1C(=O)CC(CC2CCOCC2)C1=O (stereo not shown) [Compound A8],20,0,100,80,50,60,90%,50%,50%,50%
Cc1cnc(-c2ccc(Cl)cc2)nc1C1C(=O)C/C(=C\C2CCOCC2)C1=O (stereo not shown) [Compound A9],50,0,100,70,10,50,100%,40%,20%,60%
Cc1sc(-c2ccc(Cl)cc2)cc1C1C(=O)C/C(=C\C2CCOCC2)C1=O (stereo not shown) [Compound A10],,,,,,,70%,10%,20%,0%
Cc1sc(-c2ccc(Cl)cc2)nc1C1C(=O)C/C(=C\c2ccoc2)C1=O (stereo not shown) [Compound A11],,,,,,,80%,0%,10%,0%
Cc1sc(-c2ccc(Cl)cc2)nc1C1C(=O)CC(Cc2ccc(F)cn2)C1=O (stereo not shown) [Compound A12],70,80,100,100,100,90,100%,100%,100%,90%
Cc1sc(-c2ccc(Cl)cc2)nc1C1C(=O)C/C(=C\c2ccc(F)cn2)C1=O (stereo not shown) [Compound A13],,,,,,,20%,0%,10%,10%
Cc1sc(-c2ccc(Cl)cc2)nc1C1C(=O)C/C(=C/c2ccccn2)C1=O (stereo not shown) [Compound A15],10,0,,,,,20%,0%,10%,0%
Cc1sc(-c2ccc(Cl)cc2)nc1C1C(=O)CC(Cc2ccccn2)C1=O (stereo not shown) [Compound A16],60,60,100,90,90,80,100%,100%,90%,100%
Cc1sc(-c2ccccc2)nc1C1C(=O)CC(CC2CCOCC2)C1=O (stereo not shown) [Compound A17],60,40,100,100,70,50,100%,100%,90%,90%
Cc1sc(-c2ccc(Cl)cc2)nc1C1C(=O)CC(CC2CCOCC2)C1=O (stereo not shown) [Compound A18],80,90,100,100,80,90,100%,100%,100%,100%
Cc1ccc2c(cnn2C)c1C1C(=O)CC(CC2CCOCC2)C1=O (stereo not shown) [Compound A19],,,,,,,40%,0%,20%,10%

# Source: US9051300B2, “Herbicides” (Syngenta Limited, priority 2009, dated 2015)
